Assay results published in article PMC7450530 (Biochemistry, 2019).

Experiments:
[1] = biological target: T1, M. tuberculosis GyrA^A90V gyrase (Mycobacterium tuberculosis, UniProt P9WG47, A90V); type: biochemical
[2] = biological target: T1, M. tuberculosis GyrA^A90V gyrase; type: biochemical; remark: listed apart in the source

Compound: CC[C@H](C)n1cc(C)c2c(C(=O)NCc3c(C)cc(C)[nH]c3=O)cc(-c3ccc(N4CCNCC4)nc3)cc21 [GSK126]
- single-stranded DNA cleavage enhancement compared to wild-type [1]: induced substantially more single-stranded DNA cleavage
- potency in supercoiling inhibition compared to the wild-type enzyme [2]: potency dropped considerably
